{
  "source": "patent US6280760A",
  "about": "“Peptide-coated implants and methods for producing same” (Merck Patent Gesellschaft mit beschraenkter Haftung, priority 1997, dated 2001)",
  "key": {"[1]": {"test_system": "MC3T3 H1 osteoblasts", "assay": "Adhesion of MC3T3 H1 osteoblasts to PMMA moulded articles coated with acrylate RGD peptides", "type": "cell-based, mouse", "description": "For the covalent coupling of these peptides to polymerized PMMA (polymethyl methacrylate) surfaces, appropriate shaped articles of differing porosity (diameter: 10 mm; height: 2 mm) were prepared from three different PMMA components.\nBone cement based on PMMA (Merck KGaA, Germany, Licence No. 5181.00.00) corresponding to the product description (40 g of powder+20 ml of liquid).\n10 g of PMMA/PHEMA (polyhydroxyethyl methacrylate) granules, particle size 0.5-0.6 mm (Biomet) were mixed with 1.3 ml of an HEMA solution (68.6% HEMA, 29.4% TEGMA [triethylene glycol dimethacrylate], 2% tBPB, [tert-butyl peroxybenzoate]) and adhered by means of this to a porous support material.\n10 g of PMMA granules (Plex Y7H, Rohm, Germany), particle fraction 0.7-2 mm were mixed with 1.5 ml of a methyl methacrylate (MMA) solution (68.6% MMA, 29.4% TEGMA, 2% tBPB) and adhered by this means to a porous support material.\nFor the covalent coupling of the acrylate peptides to the prepolymerized PMMA moulded articles, stock solutions of the acrylate peptides 1, 2, 3 and 4 were prepared in a final concentration of 100 μM in each case in DMSO/0.2% camphorquinone (w/v). Then, by dilution with isopropanol/0.2% camphorquinone (w/v), concentration series having final peptide concentrations of 0.1 nM, 1 nM, 10 nM, 100 nM, 1 μM and 10 μM in each case were prepared. The moulded articles were incubated in daylight and at room temperature for 2 hours and then stored at 4° C. in the dry state. Before use, the samples were washed with PBS, pH 7.4, to remove unbound peptides and stored at 4° C. in PBS, pH 7.4, overnight.\nBy addition of 250 μl/moulded article each of a 5% strength BSA solution in PBS, pH 7.4, and subsequent incubation for 2 hours at room temperature and washing once with PBS, pH 7.4, non-specific cell-binding sites were blocked.\nSubsequently, the adhesion of osteoblasts of the MC3T3 H1 line, obtained from the calvaria of neonatal mice (Heermeier et al., 1995, Cells and Materials 5: 309-321) to the above-described peptide-coated surfaces was investigated.\nThe MC3T3 H1 osteoblasts were inoculated at an inoculation density of 48,000 cells/cm^2, as described above, in Costar 48-well plates, with PMMA moulded articles coated with RGD peptide and then incubated for 1 hour at 37° C., 95% atmospheric humidity and 5% CO2. Cells non-adhered during the experiment were then washed off twice with PBS, pH 7.4.\n(§1) The quantification of the adhered cells was carried out indirectly via the activity determination of the cellular enzyme N-acetylhexosaminidase using an appropriate standard curve according to the method of Landegren (1984, J. Immunol. Methods, 67: 379-388)."}, "[2]": {"test_system": "primary rat osteoblasts", "assay": "Adhesion of primary rat osteoblasts to BSA-pretreated polystyrene surfaces coated with thiol-RGD peptides via sulpho-SMPB", "type": "cell-based", "conditions": "48,000 cells/cm^2, 1 hour", "description": "(§2) The covalent coupling of the peptides according to the invention with sulphosuccinimidyl 4-(p-maleimidophenyl)butyrate (sulpho-SMPB) to culture surfaces of polystyrene precoated with bovine serum albumin (BSA) was accomplished following the established processes of Singer et al., 1987, J. Cell. Biol. 104: 573, or of Ruoslahti et al. (1982, Methods. Enzymol., 82: 803-831).\n(§3) To do this, 48-well plates (Costar, \"non-tissue culture treated\", Art. No. 3547) were each coated with 250 μl of PBS (phosphate-buffered saline), pH=8.3, 2% BSA, per well and incubated overnight at room temperature in order to generate a BSA layer on the polystyrene. The plates were then washed with 250 μl of PBS, pH=8.3, per well and incubated at room temperature for 1 hour with 250 μl each of a solution containing 100 μg/ml of SMPB in PBS, pH 8.3. Washing of the wells was then carried out three times using 250 μl of PBS, pH 8.3, each time. For the preparation of the coating solutions, the appropriate thiol-RGD peptide was prepared in the following final concentrations in PBS, pH 8.3: 1 nM, 10 nM, 100 nM, 1 μM, 10 μM, 100 μM and 1 mM. […]\nas §1"}, "[3]": {"test_system": "primary human osteoblasts", "assay": "Adhesion of primary human osteoblasts to BSA-pretreated polystyrene surfaces coated with thiol-RGD peptides via sulpho-SMPB", "type": "cell-based", "conditions": "48,000 cells/cm^2, 1 hour", "description": "as §2, §3, §1"}, "[4]": {"test_system": "osteoblast cultures", "assay": "Adhesion of the different osteoblast cell species to thiolpeptide-coated BSA-polystyrene surfaces (statements over all cultures)", "type": "cell-based, mouse, human, rat", "conditions": "all osteoblast cultures employed", "description": "as §2, §3, §1"}, "[5]": {"test_system": "MC3T3 H1 osteoblasts", "assay": "Adhesion of MC3T3 H1 osteoblasts to BSA-pretreated polystyrene surfaces coated with thiol-RGD peptides via sulpho-SMPB", "type": "cell-based, mouse", "conditions": "for stimulation of the adhesion of cultured mouse MC3T3 H1 osteoblasts: BSA-pretreated polystyrene, peptide coupled via sulpho-SMPB, FIG. 2; for maximum adsorption rate (of the inoculated cells): MC3T3 H1 mouse osteoblasts, 48,000 cells/cm^2, 1 hour", "description": "as §2\nTo do this, 48-well plates (Costar, \"non-tissue culture treated\", Art. No. 3547) were each coated with 250 μl of PBS (phosphate-buffered saline), pH=8.3, 2% BSA, per well and incubated overnight at room temperature in order to generate a BSA layer on the polystyrene. The plates were then washed with 250 μl of PBS, pH=8.3, per well and incubated at room temperature for 1 hour with 250 μl each of a solution containing 100 μg/ml of SMPB in PBS, pH 8.3. Washing of the wells was then carried out three times using 250 μl of PBS, pH 8.3, each time. For the preparation of the coating solutions, the appropriate thiol-RGD peptide was prepared in the following final concentrations in PBS, pH 8.3: 1 nM, 10 nM, 100 nM, 1 μM, 10 μM, 100 μM and 1 mM. After addition of 250 μl each of coating solution/well, the plates were incubated at room temperature overnight and then washed three times with PBS, pH 8.3. By addition of 250 μl each of a 5% strength BSA solution in PBS, pH 7.4, subsequent incubation for 2 hours at room temperature and washing with PBS, pH 7.4, non-specific cell-binding sites were blocked. Polystyrene surfaces, which from the coating were treated with a 5% strength BSA solution identically to the positive samples, functioned as negative coating controls. The adhesion of four cell cultures which were obtained from three different species was then investigated on the abovementioned surfaces coated with RGD peptide:\nosteoblast cell line MC3T3 H1, obtained from the calvaria of neonatal mice (Heermeier et al., 1995, Cells and Materials, 5: 309-321), and\nThe cell species described were inoculated with an inoculation density of 48,000 cells/cm^2 into, as described above, Costar-48 well plates coated with RGD peptide, and then incubated for 1 hour at 37° C., 95% atmospheric humidity and 5% CO2. Cells unadhered during the experiment were then washed off twice with PBS, pH 7.4.\nas §1"}, "[6]": {"test_system": "primary human osteoprogenitor cells", "assay": "Adhesion of primary human osteoprogenitor cells to BSA-pretreated polystyrene surfaces coated with thiol-RGD peptides via sulpho-SMPB", "type": "cell-based", "conditions": "48,000 cells/cm^2, 1 hour", "description": "as §2, §3, §1"}, "[7]": {"test_system": "human melanoma cell line M21L", "assay": "Adhesion of alphav beta3-/alphav beta5-negative control cells M21L to thiolpeptide-coated BSA-polystyrene surfaces", "type": "cell-based", "conditions": "BSA-pretreated polystyrene coated with thiolpeptide", "description": "as §2, §3, §1"}},
  "data": [
    {"substance": "cyclo(RGDf[acrylic-ahx-tEG-tEGK]) [acrylate peptide 4]", "values": [
      {"measurement": "cell adsorption rates increased in comparison with uncoated surfaces", "setting": "[1]; bone cement shaped articles, FIG. 8", "result": "5-15 fold"},
      {"measurement": "maximal adsorption rates", "setting": "[1]; different PMMA moulded articles, 48,000 cells/cm^2, 1 hour", "result": "80-100%"},
      {"measurement": "EC50", "setting": "[1]; different PMMA moulded articles, read-out: half-maximal cell bindings, RGD peptide concentration in the coating solution", "result": "0.001 to 10", "unit": "µM"},
      {"measurement": "cell adsorption rates increased in comparison with uncoated surfaces", "setting": "[1]; porous PMMA/PHEMA granule shaped articles, FIG. 9", "result": "2-5 fold"},
      {"measurement": "cell adsorption rates increased in comparison with uncoated surfaces", "setting": "[1]; porous Plex Y7H granule shaped articles, FIG. 10", "result": "2-3 fold"}
    ]},
    {"substance": "cyclo-RGDfK NH--CO--CH2 --CH2 --CO--NH--CH2 --CH2 --S-- (sulpho-SMPB) [thiolpeptide 2-(sulpho-SMPB) derivative]", "values": [
      {"measurement": "maximum adsorption rate (of the inoculated cells)", "setting": "[2]", "result": "about 70%"},
      {"measurement": "maximum adsorption rate (of the inoculated cells)", "setting": "[3]", "result": "about 80%"},
      {"measurement": "cell adsorption rates raised compared with 5% BSA-coated surfaces", "setting": "[4]", "result": "20-40 fold"},
      {"measurement": "stimulation of the adhesion of cultured mouse MC3T3 H1 osteoblasts", "setting": "[5]", "result": "strong and dose-dependent stimulation"},
      {"measurement": "maximum adsorption rate (of the inoculated cells)", "setting": "[5]", "result": "90-100%"},
      {"measurement": "maximum adsorption rate (of the inoculated cells)", "setting": "[6]", "result": "about 80%"},
      {"measurement": "cell adhesion of alphav beta3-/alphav beta5-negative control cells (M21L)", "setting": "[7]", "result": "do not show any significant cell adhesion"}
    ]},
    {"substance": "cyclo-RGDfK NH--CO--CH2 --CH2 --S-- (sulpho-SMPB) [thiolpeptide 1-(sulpho-SMPB) derivative]", "values": [
      {"measurement": "maximum adsorption rate (of the inoculated cells)", "setting": "[2]", "result": "about 70%"},
      {"measurement": "maximum adsorption rate (of the inoculated cells)", "setting": "[3]", "result": "about 80%"},
      {"measurement": "cell adsorption rates raised compared with 5% BSA-coated surfaces", "setting": "[4]", "result": "20-40 fold"},
      {"measurement": "stimulation of the adhesion of cultured mouse MC3T3 H1 osteoblasts", "setting": "[5]", "result": "strong and dose-dependent stimulation"},
      {"measurement": "maximum adsorption rate (of the inoculated cells)", "setting": "[5]", "result": "90-100%"},
      {"measurement": "maximum adsorption rate (of the inoculated cells)", "setting": "[6]", "result": "about 80%"},
      {"measurement": "cell adhesion of alphav beta3-/alphav beta5-negative control cells (M21L)", "setting": "[7]", "result": "do not show any significant cell adhesion"}
    ]},
    {"substance": "cyclo-RGDvE CO--NH--CH2 --CH2 --CH2 --CH2 --CH2 --CO--NH--CH2 --CH2 --S-- (sulpho SMPB) [thiolpeptide 3-(sulfo-SMPB), reference compound]", "values": [
      {"measurement": "stimulation of the adhesion of cultured mouse MC3T3 H1 osteoblasts", "setting": "[5]", "result": "markedly weaker effect"}
    ]},
    {"substance": "cyclo-RβADfK-NH--CO--CH2 --CH2 --S-- (sulpho-SMPB) [thiolpeptide control, reference compound]", "values": [
      {"measurement": "stimulation of the adhesion of cultured mouse MC3T3 H1 osteoblasts", "setting": "[5]", "result": "no significant effect"}
    ]}
  ]
}
